# Measurements reported in US20140230081A1, “POLYNUCLEOTIDE, POLYPEPTIDE, ANIMAL MODEL AND METHOD FOR THE DEVELOPMENT OF COMPLEMENT SYSTEM MODULATORS” (BAYER INTELLECTUAL PROPERTY GMBH, priority 2011, published 2014).
# Values joined by “and” are separate entries in the source; they are usually repeats but may differ in a detail not shown here. Equal entries are not always repeated. Where two headings read alike, the source gives them in different places.
# Legend:
# complement activation [1] = conditions: cited from earlier work
# [2] = test system: porcine-to-human xenograft; conditions: perfused with human blood; cited from earlier work
# complement activation [3] = conditions: cited from earlier work; remark: listed apart in the source
# IL10 expression = assay: CLP model in hamster, IL10 expression in tissues (TaqMan RT-PCR); assay type: in vivo, Syrian Hamster; conditions: CLP+0.5 mg/kg, CLP+2.5 mg/kg and CLP+Alzet vs. CLP+vehicle, dose dependently
# Procedure: (§1) Hamster tissues were pulverized by grinding with liquid nitrogen. Total RNA was extracted, DNase I digestion was performed to remove residual genomic DNA and the RNA were reverse transcribed using random hexamer primers. Quantitative TaqMan RT-PCR analysis was performed using the Applied Biosystems PRISM 7900 sequence detection system. The thermal protocol was set to 2 min at 50° C., followed by 10 min at 95° C. and by 40 cycles of 15 s at 95° C. and 1 min at 60° C. Results were normalized to L32 controls, and relative expression was calculated according to the following formula: relative expression=2̂(15−(CT(probe)−CT(L32))). The parameter CT is defined as the cycle number at which the amplification plot passes a fixed threshold above baseline.
# (§2) Midline incision was made in the Linea Alba of the peritoneal cavity and the cecum was exposed. 50% of the cecum was tied off by placing a tight ligature around the cecum. For the CLP model two puncture wounds were made with an 18-gauge needle into the cecum and small amounts of cecal contents were expressed through the wounds, situs was flushed with 0.5 mL sterile saline. Finally, the cecum was replaced into the peritoneal cavity and the laparotomy site was closed. The sham group underwent abdominal surgery; the cecum was exposed and replaced without ligation or puncture of the cecum. Situs was flushed with 0.5 mL sterile saline and the laparotomy site was closed.
# C5aR Antagonist was dissolved in DMSO and diluted with sterile saline solution. The final solution contained 5% DMSO. […]
# (§3) Total RNA was isolated from hamster tissues with the Trizol-Reagent protocol according to the manufacturer's specifications (Invitrogen; USA). […] For relative quantitation of the mRNA distribution of IL10, IL6 and IL1b, total RNA from each sample was first reverse transcribed. […] For relative quantitation of the distribution of IL10, IL6 or IL1b mRNA the Applied Biosystems PRISM 7900 sequence detection system was used according to the manufacturer's specifications and protocols. PCR reactions were set up to quantitate IL 10, IL6 or IL1b and the housekeeping gene L32. […]
# IL6 expression = assay: CLP model in hamster, IL6 expression in tissues (TaqMan RT-PCR); assay type: in vivo, Syrian Hamster; conditions: CLP+0.5 mg/kg, CLP+2.5 mg/kg and CLP+Alzet vs. CLP+vehicle, dose dependently
# Procedure: as §1, with “baseline. […]” for “baseline.”
# as §3
# IL1b expression = assay: CLP model in hamster, IL1b expression in tissues (TaqMan RT-PCR); assay type: in vivo, Syrian Hamster; conditions: CLP+0.5 mg/kg, CLP+2.5 mg/kg and CLP+Alzet vs. CLP+vehicle; dose dependently; FIG. 11
# Procedure: as §1, with “baseline. […]” for “baseline.”
# as §3
# white blood cell counts = assay: CLP model in hamster, hemogram (white blood cell counts of EDTA whole blood); assay type: in vivo, Syrian Hamster; conditions: CLP+0.5 mg/kg, CLP+2.5 mg/kg and CLP+Alzet compared to CLP+vehicle; FIG. 24
# Procedure: Blood samples were obtained under light Isoflurane anesthesia from the cavernous sinus with a capillary at different time points/final exsanguination by cannulation of the carotid artery after 24 hr to allow measurements of differential blood counts. Blood samples for basal blood cell counts were collected from the cavernous sinus one week before study begin. Blood was collected into EDTA tubes and blood cell counts were performed on an automated cell counter.
# as §2
# C5aR Antagonist was dissolved in DMSO and diluted with sterile saline solution. The final solution contained 5% DMSO. […] The study medication was given s.c. 30 min before and 2 h after CLP surgery. […]
# hamster C5aR1 [4] = assay: Receptor activation of hamster C5aR1, reduction by antagonist; assay type: cell-based; conditions: activated by human C5a ligand
# C5aR [5] = conditions: cynomolgus monkey neutrophils; cited from earlier work
# C5aR [6] = conditions: gerbil neutrophils; cited from earlier work
# hamster C5aR1 [7] = assay: C5aR1 signalling via Calcium release (luminescence) in CHOmtCly_hamster-C5aR1/Galpha16 cells; assay type: cell-based; conditions: peptide at 7 μM; three CHOmtCly_hamster-C5aR1/Galpha16 cell lines, respectively; measured for 60 seconds; listed as Bachem peptide 83462
# Procedure: CHO K1 cell lines expressing mitochondrial Clytin (CHOmtCly) were co-transfected with the expression vector pcDNA3 harbouring the cDNA of hamster C5aR1 und pcDNA3-Galpha16 to allow the measurement of C5aR1 signalling via Calcium release (generated cells are named CHOmtCly_hamster-C5aR1/Galpha16). Control cells (CHOmtCly_pcDNA3) were generated by transfection of CHOmtCly cells with a corresponding amount of empty pcDNA3 vector only. In brief, 10^6 cells were transfected with 2 μg DNA by use of the Nucleofector (Amaxxa) program U-27. Transfected cells were seeded in 384-well MTP with a density of 250 cells per well. After 24 h incubation at 37° C. selection media containing a final concentration of 1 mg/ml G418 was added. After one week of selection plates were duplicated and tested for C5aR1 signalling. Cells were loaded with Coelenterazine for 3 h, than buffer or the C-terminal peptide of human C5a (Bachem H3462) was added at a final concentration of 7 μM. Luminescence (RLU) was measured for 60 seconds.
# For activity measurement, three CHOmtCly_hamster-C5aR1/Galpha16 cell lines and three CHOmtCly cDNA3 cell lines were analyzed, respectively.
# Target sequence in this assay (as listed by the source): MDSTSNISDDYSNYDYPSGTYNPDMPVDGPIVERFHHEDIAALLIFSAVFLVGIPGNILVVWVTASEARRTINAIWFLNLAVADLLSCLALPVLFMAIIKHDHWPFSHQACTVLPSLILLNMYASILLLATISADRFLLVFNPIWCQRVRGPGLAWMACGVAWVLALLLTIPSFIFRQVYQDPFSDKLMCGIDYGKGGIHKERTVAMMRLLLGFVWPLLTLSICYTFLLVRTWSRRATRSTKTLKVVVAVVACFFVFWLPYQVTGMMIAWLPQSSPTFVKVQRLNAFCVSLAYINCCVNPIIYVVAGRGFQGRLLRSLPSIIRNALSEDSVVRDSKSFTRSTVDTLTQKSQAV
# Target sequence in this assay (P30679 whole entry partner): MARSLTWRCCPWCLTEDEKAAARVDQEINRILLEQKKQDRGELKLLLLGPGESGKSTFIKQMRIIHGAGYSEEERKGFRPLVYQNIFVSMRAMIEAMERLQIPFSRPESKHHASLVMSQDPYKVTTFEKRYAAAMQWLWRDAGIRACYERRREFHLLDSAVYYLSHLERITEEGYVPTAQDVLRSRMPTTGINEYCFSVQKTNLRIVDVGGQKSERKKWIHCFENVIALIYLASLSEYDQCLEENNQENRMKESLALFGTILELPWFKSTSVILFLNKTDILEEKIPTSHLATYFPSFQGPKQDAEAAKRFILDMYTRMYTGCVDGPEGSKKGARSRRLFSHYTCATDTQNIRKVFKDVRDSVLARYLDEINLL
# [8] = target: hamster C5aR1 polypeptide (hamster); assay: cell-based or functional assay
# [9] = test system: classical complement pathway; conditions: cited from earlier work
# [10] = test system: complement-mediated tissue injury; conditions: models of ischemia-reperfusion and animal models of human acute and chronic inflammatory diseases; cited from earlier work
# [11] = in vivo; cited from earlier work
# hamster C5aR1 polypeptide (hamster), sequence (chain, as listed by the source limits assumed): as the sequence (as listed by the source) above
compound,measurement,setting,value
CC[C@H](C)[C@H](N)C(=O)N[C@H]1CSSC[C@@H](C(=O)N[C@H](C(N)=O)[C@@H](C)O)NC(=O)[C@H](CCCN=C(N)N)NC(=O)[C@H](Cc2cnc[nH]2)NC(=O)[C@H](Cc2cnc[nH]2)NC(=O)CNC(=O)[C@H](Cc2c[nH]c3ccccc23)NC(=O)[C@H](CC(=O)O)NC(=O)[C@H](CCC(N)=O)NC(=O)[C@H](C(C)C)NC(=O)[C@H](C(C)C)NC1=O [Compstatin],complement activation in human serum,complement activation [1],inhibit
same,lifetime of a porcine-to-human xenograft,[2],prolongs
same,side effects,complement activation [3]; in vivo,without significant side effects
same,heparine and protamine-induced complement activation,complement activation [3]; primates,inhibit
COc1ccc2c(c1)C(C(=O)N(Cc1ccc(N(C)C)cc1)c1ccc(C(C)C)cc1)CCC2.Cl (stereo not drawn) [W-54011],expression of IL10 in kidney tissue,IL10 expression; FIG. 6,decreased
same,expression of IL10 in LV (left ventricle) tissue,IL10 expression; FIG. 7,decreased
same,expression of IL10 in lung tissue,IL10 expression; FIG. 8,decreased
same,expression of IL6 in LV (left ventricle) tissue,IL6 expression; FIG. 9,decreased
same,expression of IL6 in lung tissue,IL6 expression; FIG. 10,decreased
same,expression of IL1b in LV (left ventricle) tissue,IL1b expression,decreased
same,WBC (white blood cell counts),white blood cell counts,higher
same,receptor activation of hamster C5aR1,hamster C5aR1 [4],can be reduced
same,inhibition of C5a-mediated responses,C5aR [5],inhibits
same,inhibition of C5a-mediated responses,C5aR [6],inhibits
H3462: C-terminal peptide of human C5a (Bachem H3462) (ISHKDMQLGR),Luminescence (RLU) on stimulation,hamster C5aR1 [7],247943 RLU and 243143 RLU and 203151 RLU
C-terminal peptide of human C5a (Bachem H3462) (from UniProt P01031 742-751),"Luminescence (RLU), calcium release via mitochondrial Clytin, peptide at 7 µM, measured for 60 seconds; cell line 1 of 3",[8],248000 RLU
same,"Luminescence (RLU), calcium release via mitochondrial Clytin, peptide at 7 µM, measured for 60 seconds; cell line 2 of 3",[8],243000 RLU
same,"Luminescence (RLU), calcium release via mitochondrial Clytin, peptide at 7 µM, measured for 60 seconds; cell line 3 of 3",[8],203000 RLU
CEGPFGPRHDLTFCW [2J],IC50,[9],2 to 6 µM
sCR1: soluble version of recombinant human CR1 lacking the transmembrane and cytoplasmic domains,complement-mediated tissue injury,[10],reduce
same,half-life in circulation,[11],short
